# Measured values reported in patent publication US10160771B2, “Hepatitis C virus inhibitors and uses thereof in preparation of drugs” (priority 2014, dated 2018).
# Tests used:
# [1] = tested on: HCV genotype 1a (HCV-1a) replicon cells; assay: HCV genotype 1a replicon luciferase assay (EC50); format: cell-based, hepatitis C virus genotype 1a (H77 clone); conditions: 3 days, luciferase (Bright-Glo)
# Method in brief: (§1)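 EC50 by nonlinear fitting of % inhibition from Bright-Glo luciferase signal after 3-day, 37° C. compound exposure (5-fold, 6 points from 100, 10 or 1 nM; 0.5% DMSO; duplicates). Cells: 1a replicon from H77 (K1691R/K2040R/S2204I) or 1b from Con1 (E1202G/T1280I/K1846T), 8000 per well.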
# [2] = tested on: HCV genotype 1b (HCV-1b) replicon cells; assay: HCV genotype 1b replicon luciferase assay (EC50); format: cell-based, hepatitis C virus genotype 1b (Con1 clone); conditions: 3 days, luciferase (Bright-Glo)
# Method in brief: as §1
# [3] = Cell Titer-fluor cell activity assay in HCV-1b replicon cells (CC50); format: cell-based
# Method in brief: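 CC50 derived by nonlinear fitting of inhibition % from Cell Titer-fluor signal (405/515 nm, 30 min). Cells: genotype 1b Con1 replicon carrying E1202G, T1280I, K1846T, seeded 8000/well with compound for 3 days, 37 °C, 0.5% DMSO; 6 points, 5-fold dilution, top 100, 10 or 1 nM, duplicates.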
Compound,"EC50 ([1]; Hepatitis C virus, 72 h) [nM]","EC50 ([2]; Hepatitis C virus, 72 h) [nM]",CC50 at 3 days [3] [nM],EC50 [1] [nM],EC50 [2] [nM]
COC(=O)N[C@H](C(=O)N1CCC[C@H]1c1ncc(-c2ccc(-c3ccc(-c4cnc([C@H]5CCCC[C@@H]5C(=O)NC5(c6cccnc6)CC5)[nH]4)cc3)cc2)[nH]1)C(C)C [AA_186],1 to 10,0.101 to 1,> 5,–,–
COC(=O)N[C@H](C(=O)N1CCC[C@H]1c1ncc(-c2ccc(-c3ccc(-c4cnc([C@H]5C6CCC(C6)[C@@H]5C(=O)NCc5cccnc5O)[nH]4)cc3)cc2)[nH]1)C(C)C (stereo partly drawn) [AA_228],1 to 10,0.001 to 0.1,> 1,–,–
COC(=O)N[C@H](C(=O)N1CCC[C@H]1c1ccc(-c2ccc(-c3ccc(-c4cnc([C@@H]5CC6(CN5C(=O)[C@H](NC(=O)OC)C(C)C)OCC(C)(C)CO6)[nH]4)cc3)cc2)[nH]1)C(C)C [AG_076],10 to 100,0.001 to 0.1,> 5,–,–
COC(=O)N[C@H](C(=O)N1CCC[C@H]1c1ncc(-c2ccc(-c3ccc(-c4cnc(C5C6CCC(C6)[C@@H]5C(=O)NCc5cccnc5O)[nH]4)cc3)cc2)[nH]1)[C@@H](C)OC (stereo partly drawn) [AA_263_B],1 to 10,0.101 to 1,> 1,–,–
COC(=O)N[C@H](C(=O)N1CCC[C@H]1c1ncc(-c2ccc(-c3ccc(-c4cnc(C5C6CCC(C6)[C@H]5C(=O)NCc5nccs5)[nH]4)cc3)cc2)[nH]1)[C@@H](C)OC (stereo partly drawn) [AA_219_A],1 to 10,0.001 to 0.1,> 1,–,–
COC(=O)N[C@H](C(=O)N1CCC[C@H]1c1ncc(-c2ccc(-c3ccc(-c4cnc([C@@H]5C6CCC(C6)[C@H]5C(=O)NCc5cncnc5)[nH]4)cc3)cc2)[nH]1)C(C)C (stereo partly drawn) [AA_201_B],1 to 10,0.001 to 0.1,> 1,–,–
COC(=O)N[C@H](C(=O)N1CCC[C@H]1c1ncc(-c2ccc(-c3ccc(-c4cnc(C5C6CCC(C6)[C@@H]5C(=O)NCc5cccnc5C(C)C)[nH]4)cc3)cc2)[nH]1)[C@@H](C)OC (stereo partly drawn) [AA_245_B],10 to 100,0.101 to 1,> 1,–,–
COC(=O)N[C@H](C(=O)N1CCC[C@H]1c1ncc(-c2ccc(-c3ccc(-c4cnc(C5C6CCC(C6)[C@@H]5C(=O)NCc5ccc(C(C)C)nc5)[nH]4)cc3)cc2)[nH]1)[C@@H](C)OC (stereo partly drawn) [AA_265_A],10 to 100,0.101 to 1,> 1,–,–
COC(=O)N[C@H](C(=O)N1CCC[C@H]1c1ncc(-c2ccc(-c3ccc(-c4cnc([C@H]5C6CCC(C6)[C@@H]5C(=O)NCc5cccnc5F)[nH]4)cc3)cc2)[nH]1)C(C)C (stereo partly drawn) [AA_224_A],1 to 10,0.001 to 0.1,> 1,–,–
COC(=O)N[C@H](C(=O)N1CCC[C@H]1c1ncc(-c2ccc(-c3ccc(-c4cnc(C5CCCC[C@@H]5C(=O)N(NC(=O)OC)C(C)C)[nH]4)cc3F)cc2)[nH]1)C(C)C (stereo partly drawn) [AA_117],10 to 100,0.101 to 1,> 10,–,–
COC(=O)N[C@H](C(=O)N1CCCC1c1ccc(-c2ccc(-c3ccc(-c4cnc([C@@H]5COC(C)(C)N5C(=O)[C@@H](NC(=O)OC)C(C)C)[nH]4)cc3)cc2)[nH]1)C(C)C (stereo partly drawn) [AG_022],10 to 100,0.101 to 1,> 10,–,–
COC(=O)N[C@H](C(=O)N1CCC[C@H]1c1ncc(-c2ccc(-c3ccc(-c4cnc([C@@H]5C6CCC(C6)[C@H]5C(=O)NCc5cccnc5C5CC5)[nH]4)cc3)cc2)[nH]1)C(C)C (stereo partly drawn) [AA_234_B],10 to 100,0.001 to 0.1,> 1,–,–
COC(=O)N[C@H](C(=O)N1CC2(CC2)C[C@H]1c1ncc(-c2ccc(-c3ccc(-c4[nH]c([C@@H]5CCCN5C(=O)[C@@H](NC(=O)OC)[C@@H](C)OC)c5c4COC5)cc3)cc2)[nH]1)C(C)C [AG_117],0.101 to 1,0.001 to 0.1,> 1,–,–
COC[C@H](NC(=O)OC)C(=O)N1CCC[C@H]1c1ncc(-c2ccc(-c3ccc(-c4[nH]c([C@@H]5CCCN5C(=O)[C@@H](NC(=O)OC)C(C)C)c5c4CCC5)cc3)cc2)[nH]1 [AG_091],1 to 10,0.001 to 0.1,> 1,–,–
COC(=O)N[C@H](C(=O)N1CCC[C@H]1c1ncc(-c2ccc(-c3ccc(-c4cnc([C@H]5C6CCC(C6)[C@@H]5C(=O)NCc5ccccc5N)[nH]4)cc3)cc2)[nH]1)C(C)C (stereo partly drawn) [AA_194],10 to 100,0.001 to 0.1,> 1,–,–
COC(=O)NC(C(=O)N1CCC[C@H]1c1ncc(-c2ccc(-c3ccc(-c4cnc(C5CCCC[C@@H]5C(=O)N(NC(=O)OC)C(C)C)[nH]4)cc3)cc2)[nH]1)C1CCOC1 (stereo partly drawn) [AA_122],10 to 100,0.101 to 1,> 100,–,–
COC(=O)N[C@H](C(=O)N1CCC[C@H]1c1ncc(-c2ccc(-c3ccc(-c4cnc(C5C6CCC(C6)[C@H]5C(=O)NCc5ccc(OC)nc5)[nH]4)cc3)cc2)[nH]1)[C@@H](C)OC (stereo partly drawn) [AA_223_A],10 to 100,0.101 to 1,> 1,–,–

Compound,"EC50 ([1]; Hepatitis C virus, 72 h) [nM]","EC50 ([2]; Hepatitis C virus, 72 h) [nM]",CC50 at 3 days [3] [nM],EC50 [1] [nM],EC50 [2] [nM]
COC(=O)N[C@H](C(=O)N1CCC[C@H]1c1ccc(-c2ccc(-c3ccc(-c4cnc([C@@H](NC(=O)[C@@H](NC(=O)OC)[C@@H](C)OC)C(C)C)[nH]4)cc3)cc2)[nH]1)C(C)C [AG_102],1 to 10,0.001 to 0.1,> 1,–,–
COC(=O)N[C@H](C(=O)N1CCC[C@H]1c1ncc(-c2ccc(-c3ccc(-c4cnc([C@@H]5C6CCC(C6)[C@H]5C(=O)NCc5cccnc5F)[nH]4)cc3)cc2)[nH]1)C(C)C (stereo partly drawn) [AA_224_B],1 to 10,0.001 to 0.1,> 1,–,–
COC(=O)NC(C(=O)N1CCC[C@H]1c1ncc(-c2ccc(-c3ccc(-c4cnc(C5C6CCC(C6)[C@@H]5C(=O)NCc5cccnc5)[nH]4)cc3)cc2)[nH]1)C1CCOCC1 (stereo partly drawn) [AA_191],1 to 10,0.101 to 1,> 1,–,–
COC(=O)N[C@H](C(=O)N1CCC[C@H]1c1[nH]c(-c2ccc(-c3ccc(-c4[nH]c([C@@H]5CCCN5C(=O)[C@@H](NC(=O)OC)C(C)C)c5c4CCC5)cc3)cc2)c2c1CCC2)C(C)C [AG_026_A],10 to 100,0.101 to 1,> 10,–,–
COC(=O)N[C@H](C(=O)N1CCC[C@@H]1c1[nH]c(-c2ccc(-c3ccc(-c4cnc([C@@H]5CCCN5C(=O)[C@@H](NC(=O)OC)C(C)C)[nH]4)cc3)cc2)c2c1CCCO2)C(C)C [AG_114_B],10 to 100,0.101 to 1,> 1,–,–
COC(=O)N[C@H](C(=O)N1CCC[C@H]1c1ncc(-c2ccc(-c3ccc(-c4cnc(C5C6CCC(C6)[C@@H]5C(=O)NCc5cccnc5)[nH]4)cc3)cc2)[nH]1)[C@@H](C)OC (stereo partly drawn) [AA_179_B],1 to 10,0.001 to 0.1,> 1,–,–
COC(=O)N[C@H](C(=O)N1CCC[C@H]1c1ncc(-c2ccc(-c3ccc(-c4cnc([C@@H]5C6CCC(C6)[C@H]5C(=O)NCCc5ccncc5)[nH]4)cc3)cc2)[nH]1)C(C)C (stereo partly drawn) [AA_209_B],10 to 100,0.101 to 1,> 1,–,–
COC(=O)N[C@H](C(=O)N1CCC[C@H]1c1cnc(-c2ccc(-c3ccc(-c4ncc(C5C6CCC(C6)[C@H]5C(=O)N(NC(=O)OC)C(C)C)[nH]4)cc3)cc2C)[nH]1)C(C)C (stereo partly drawn) [AA_169_A],1 to 10,0.001 to 0.1,> 5,–,–
COC(=O)N[C@H](C(=O)N1CCC[C@H]1c1ncc(-c2ccc(-c3ccc(-c4cnc([C@@H]5C6CCC(C6)[C@H]5C(=O)NCc5cnccn5)[nH]4)cc3)cc2)[nH]1)C(C)C (stereo partly drawn) [AA_206_B],1 to 10,0.001 to 0.1,> 1,–,–
CCOC(=O)C(NC(=O)[C@H]1C2CCC(C2)[C@@H]1c1ncc(-c2ccc(-c3ccc(-c4cnc([C@@H]5CCCN5C(=O)[C@@H](NC(=O)OC)C(C)C)[nH]4)cc3)cc2)[nH]1)c1cccnc1 (stereo partly drawn) [AA_213],1 to 10,0.001 to 0.1,> 1,–,–
COC(=O)NC(C(=O)N1CCC[C@@H]1c1[nH]c(-c2ccc(-c3ccc(-c4cnc([C@@H]5CCCN5C(=O)[C@@H](NC(=O)OC)[C@@H](C)OC)[nH]4)cc3)cc2)c2c1CCC2)[C@@H](C)OC (stereo partly drawn) [AG_068_B],10 to 100,0.101 to 1,> 1,–,–
COC[C@H](NC(=O)OC)C(=O)N1CCC[C@H]1c1ccc(-c2ccc(-c3ccc(-c4cnc([C@@H]5CCCN5C(=O)[C@H](COC)NC(=O)OC)[nH]4)cc3)cc2)[nH]1 [AG_109],0.101 to 1,0.001 to 0.1,> 1,–,–
COC(=O)N[C@H](C(=O)N1CCC[C@H]1c1ncc(-c2ccc(-c3ccc(-c4cnc([C@@H]5C6CCC(C6)[C@H]5C(=O)NCCO)[nH]4)cc3)cc2)[nH]1)C(C)C (stereo partly drawn) [AA_193],1 to 10,0.001 to 0.1,> 1,–,–
COC(=O)N[C@H](C(=O)N1CCC[C@H]1c1ncc(-c2ccc(-c3ccc(-c4cnc([C@H]5C6CCC(C6)[C@@H]5C(=O)NCc5cnccn5)[nH]4)cc3)cc2)[nH]1)C(C)C (stereo partly drawn) [AA_206_A],0.101 to 1,0.001 to 0.1,> 1,–,–
"COC(=O)N[C@H](C(=O)N1CCC[C@H]1c1ncc(-c2ccc(-c3ccc(-c4cnc([C@H]5C6CCC(C6)[C@@H]5C(=O)NC(c5cccnc5)C(C)C)[nH]4)cc3)cc2)[nH]1)C(C)C (single isomer, unassigned) [AA_233_A]",–,–,> 1,0.101 to 1,0.001 to 0.1
COC[C@H](NC(=O)OC)C(=O)N1CCC[C@H]1c1ccc(-c2ccc(-c3ccc(-c4cnc([C@@H]5CCCN5C(=O)[C@@H](NC(=O)OC)[C@@H](C)O)[nH]4)cc3)cc2)[nH]1 [AG_108],0.101 to 1,0.001 to 0.1,> 1,–,–
